Data reported in PubChem BioAssay (NCI).
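Each compound was tested at five concentrations against cells in 96-well plates for 48 hours. At the TGI there is no net growth.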 Where a SMILES comes first, the peptide text is derived from it. [ ]: non-standard residue; d: D form. The star is where a group is joined. Phe(4-NO2) = N[CH](Cc1ccc([N+](=O)[O-])cc1)C(=O)O; Boc = CC(C)(C)OC(=O)*; OtBu = CC(C)(C)O*

Columns and labels:
Experiment in all cases: DTP human tumour cell line panel, 48 h
[1] = test system: A498 renal
[2] = test system: BT-549 breast
[3] = test system: DU-145 prostate
[4] = test system: HT29 colon
[5] = test system: LOX IMVI melanoma
[6] = test system: NCI/ADR-RES ovarian
[7] = test system: PC-3 prostate
[8] = test system: SK-MEL-28 melanoma
[9] = test system: T-47D breast
[10] = test system: U251 CNS

| Compound | TGI [1] [µM] | TGI [2] [µM] | TGI [3] [µM] | TGI [4] [µM] | TGI [5] [µM] | TGI [6] [µM] | TGI [7] [µM] | TGI [8] [µM] | TGI [9] [µM] | TGI [10] [µM] |
| --- | --- | --- | --- | --- | --- | --- | --- | --- | --- | --- |
| COc1cccc(N2N=C3c4ccccc4-n4c(nc5ccccc54)C3C2N)c1 (stereo not given) | > 100 | > 100 | > 100 | > 100 | > 100 | > 100 | > 100 | > 100 | > 100 | > 100 |
| CN(Cc1nc2c(N)nc(N)nc2nc1N)c1ccc(C(=O)NC(CCC(=O)O)C(=O)O)cc1 (stereo not given) | > 100 | > 100 | > 100 | > 100 | > 100 | > 100 | > 100 | > 100 | > 100 | > 100 |
| COC(=O)C(Cc1ccc([N+](=O)[O-])cc1)NC(=O)C(CC(=O)OC(C)(C)C)NC(=O)OC(C)(C)C (stereo not given) (Boc-Asp(OtBu)-[Phe(4-NO2)]-OMe; configuration not given here) | > 100 | > 100 | > 100 | > 100 | 49 | > 100 | > 100 | 57.4 | > 100 | > 100 |
| CN(C)CCn1c(=O)c2ccc(NCCNCCO)c3c(=O)c4cc(O)ccc4n(c1=O)c23 | 25.7 | 32.4 | 4.97 | 5.2 | 4.42 | > 100 | 25.1 | 17 | 13.3 | 8.27 |
| COc1cc(C2S/C(=C/c3ccccc3)C(=O)N2c2ccc(Cl)cc2)cc(OC)c1OC (stereo not given) | > 100 | > 100 | > 100 | > 75.9 | 52.4 | > 100 | > 84.4 | > 100 | > 25.6 | > 94.1 |
| O=C(O)c1ccc(Nc2cnc3ccc(C(F)(F)F)cc3n2)cc1 | 42.9 | 60.1 | 69.5 | 33.6 | 24.5 | > 100 | 42.6 | > 100 | 17.9 | 59.2 |
| CC(=O)c1nccc2c1c(C)nc1ccccc12 | > 100 | > 100 | > 100 | > 100 | > 100 | > 100 | > 100 | > 100 | > 100 | > 100 |
| OCc1ccccc1OC1OC(CO)C(O)C(O)C1O (stereo not given) | > 100 | > 100 | > 100 | > 100 | > 100 | > 100 | > 100 | > 100 | > 100 | > 100 |
| O=C(O)CNC(=O)c1cccc2c(=O)c3ccccc3[nH]c12 | > 100 | > 100 | > 100 | > 100 | > 100 | > 100 | > 100 | > 100 | > 100 | > 100 |
